Data published in patent publication US20060189613A1, “Sulphonamide Compounds that Modulate Chemokine Receptor Activity (CCR4)” (priority 2003, published 2006).

Structure (SMILES) | melting point [°C]
COc1cncnc1NS(=O)(=O)c1cccc(Cl)c1Cl [Example 8, 2,3-Dichloro-N-[5-methoxy-4-pyrimidinyl]benzenesulphonamide] | 278 to 279
COc1ccnnc1NS(=O)(=O)c1cccc(Cl)c1Cl [Example 1, 2,3-Dichloro-N-[4-methoxy-3-pyridazinyl]benzenesulphonamide] | 210 to 211
COc1cnc(Cl)nc1NS(=O)(=O)c1cccc(Cl)c1Cl [Example 7, 2,3-Dichloro-N-[2-chloro-5-methoxy-4-pyrimidinyl]benzenesulphonamide] | 244 to 245
O=S(=O)(Nc1nnc(Cl)cc1OCc1cccnc1)c1cccc(Cl)c1Cl [Example 3, 2,3-Dichloro-N-[6-chloro-4-(3-pyridinylmethoxy)-3-pyridazinyl]benzenesulphonamide] | 216 to 217
COc1ncncc1NS(=O)(=O)c1cccc(Cl)c1Cl [Example 6, 2,3-Dichloro-N-[4-methoxy-5-pyrimidinyl]benzenesulphonamide] | 204 to 211
COc1ncc(NS(=O)(=O)c2cccc(Cl)c2Cl)c(OC)n1 [Example 5, 2,3-Dichloro-N-[2,4-dimethoxy-5-pyrimidinyl]benzenesulphonamide] | 124 to 126
COc1cc(Cl)nnc1NS(=O)(=O)c1cccc(Cl)c1Cl [Example 2, 2,3-Dichloro-N-[6-chloro-4-methoxy-3-pyridazinyl]benzenesulphonamide] | 226 to 227

Further lines, results first:

melting point [°C] | Structure (SMILES)
190 to 191 | COc1cnc(C(F)(F)F)nc1NS(=O)(=O)c1cccc(Cl)c1Cl [Example 10, 2,3-Dichloro-N-[5-methoxy-2-trifluoromethyl-4-pyrimidinyl]benzenesulphonamide]
120 to 122 | COc1cc(Cl)nnc1NS(=O)(=O)c1ccc(Cl)s1 [Example 13, 5-Chloro-N-[6-chloro-4-methoxy-3-pyridazinyl]thiophene-2-sulphonamide]
249 to 250 | COc1cnc(C)nc1NS(=O)(=O)c1ccc(Cl)s1 [Example 12, 5-Chloro-thiophene-2-sulphonic acid, [5-methoxy-2-methyl-4-pyrimidinyl]amide]
201 to 202 | COc1cnc(Cl)nc1NS(=O)(=O)c1ccc(Cl)s1 [Example 11, 5-Chloro-thiophene-2-sulphonic acid, [2-chloro-5-methoxy-4-pyrimidinyl]amide]
